The results in this text go back to US6147076A, “Analogues of N-acetylardeemin, method of preparation and uses thereof” (priority 1996, dated 2000).

The structures appear in SMILES notation. Several values for one entry are separate records, joined by “and”; a condition that tells them apart may be missing. Equal values may be shown once. Read-outs that look alike come from different tables or passages of the source.

The test system of data set [1] is CCRF-CEM/VM-1 cells. Kind of data set: Cytotoxicity toward VM-26-resistant CCRF-CEM/VM-1 cells (mutated Topo II gene). The class given is cell-based, human.
For data set [2], the system named is CCRF-CEM cells. Kind of data set: Intracellular accumulation of [3H]vinblastine in CCRF-CEM cells. The class given is cell-based, human. Conditions: 30 μM. How it is done: (§1) *Cells were preloaded with [^3 H]
(§2) times (or without wash) with 100 ml cold medium to remove extracellular
(§3) with or without a reverse prenyl compound or an MDRreversing agent. Cells
(§4) were then separated from radioactive medium by microfuge oillayer method.
(§5) Extracellular space counts carried down # by cells (^3 HInulin space
(§6) were subtracted from the total radioactive counts.

Data set [3] has as its system CCRF-CEM/VLB-100 cells. Nature of the data set: Intracellular accumulation of [3H]vinblastine in CCRF-CEM/VLB-100 cells. The class given is cell-based, human. As to conditions: 30 μM. As to the method:
as §1, §2, §3, §4, §5, §6

The subject of data set [4] is DC-3F hamster lung cells. As to conditions: dc-3f cells.
Data set [5] has as its system DC-3F/ADII cells.
The test system of data set [6] is CCRF-CEM cells.
The subject of data set [7] is CCRF-CEM/VBL100 cells.
Data set [8] deals with DC-3F hamster lung cells. Kind of data set: Cytotoxicity toward DC-3F hamster lung cells.
For data set [9], the system named is CCRF-CEM cells. Nature of the data set: Cytotoxicity / growth inhibition of CCRF-CEM leukemic cells.
The test system of data set [10] is DC-3F/ADX cells. Nature of the data set: Cytotoxicity toward DC-3F/ADX cells. The data set is classed as cell-based, hamster.
Data set [11] deals with P388/0 tumor. As to conditions: DMNAA 50.0 mg/kg.
Protocol: ^a Male BDF mice were inoculated with P388/O, 10^6 cell/mouse,
i.p. on day 0; and started treatment on day 1, i.p., Q5Dx5, besides mice
with dose VBL 3.0 and VBL 3.0 mg/kg + DMNAA 50 mg/kg, only one injection
i.p., on day 1. There were five mice at every dose and ten in the control
In data set [12] the test system is DC-3F/ADII cells. Nature of the data set: cells. As to conditions: Mesocricetus auratus, DC3F, read-out: IC50 (B).
The subject of data set [13] is CCRF-CEM/VBL100 cells. Nature of the data set: cells. Conditions: Homo sapiens, read-out: IC50 of reversing agent, Table 6B, CCRF-CEM/VBL.
Data set [14] deals with CCRF-CEM cells. Nature of the data set: Influx of [3H]VP-16 in CCRF-CEM cells. The class given is cell-based, human.
In data set [15] the test system is CCRF/VM-1 cells. Nature of the data set: Intracellular accumulation of VP-16 in CCRF/VM-1 cells. Conditions: Homo sapiens, 0.5 h, read-out: increase of VP-16 accumulation.
The test system of data set [16] is CCRF-CEM cells. Kind of data set: Accumulation of VP-16 in CCRF-CEM cells preloaded with [3H]VP-16. Conditions: Homo sapiens, 0.5 h, read-out: increase of intracellular accumulation of VP-16.
In data set [17] the test system is P388/O tumor. Nature of the data set: Combination therapy of adriamycin & 5-N-acetyl-ardeemin or verapamil in B6D2F1 mice bearing P388/O tumor.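 Also: male BDF mice carrying P388/O given intraperitoneally, dosing begun on day 1 on a QDX4, QWX2 schedule, five animals per dose level.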 Conditions: VPML 70 mg/kg (then 35).
Description: ^a Male BDF mice were inoculated P388/O, 10^6 cells/mouse, i.p. a
starting day 1, QDX4, QWX2.
Data set [18] has as its system P388/DX tumor. Nature of the data set: Combination therapy of adriamycin & 5-N-acetyl-ardeemin or verapamil in B6D2F1 mice bearing P388/DX tumor.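 Also: male BDF mice implanted intraperitoneally with P388/DX cells, 10^6 per mouse, dosed from day 1 on a QDX4, QWX2 schedule, five mice per dose group.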 As to conditions: VPML 70 mg/kg (then 35).
Description: ^a Male BDF mice were inoculated P388/DX, 10^6 cells/mouse, i.p.
starting day 1, QDX4, QWX2. There were five mice at every dose and ten
Where [19] appears, read: Mesocricetus auratus, DC3F, relative cytotoxicity, DC-3F.
The mark [20] stands for this setting: Homo sapiens, human leukemic CCRF-CEM cells.

As to `C=CCC12CC3c4nc5ccccc5c(=O)n4C(C)C(=O)N3C1N(C(C)=O)c1ccccc12` (stereo not shown) [5-N-Ac"Allyl" ardeemin, "Allyl" 5-N-acetylardeemin], the IC50 in [1] (ccrf-cem/vm-1 cells) was 45 µM; in [5] (dc-3f/adii cells), 5.21 µM; in data set [6], 53.3 µM; in [7] (ccrf-cem/vbl100 cells), 35.8 µM; in [8] (setting [19]) it was 17.4 µM; in [9] (setting [20]), 53.3 µM. Also, the IC90 in [1] (ccrf-cem/vm-1 cells) came out at 916 µM; in data set [4], 56.2 µM; in [5] (dc-3f/adii cells), 34.7 µM; in [6] it was 888 µM; in [7] (ccrf-cem/vbl100 cells), 81.1 µM. In addition, the “[3H]vinblastine accumulation” value was determined as 28.88 fmole/10^3 cells in data set [2] (washed), 33.35 fmole/10^3 cells in data set [2] (without wash), 6.18 fmole/10^3 cells in [3] (washed) and 27.21 fmole/10^3 cells in data set [3] (without wash). The same compound registered a concentration for an effect of 80% (IC80) in data set [4] of 17.4 µM.

With `C=CC(C)(C)C12CC3c4nc5ccccc5c(=O)n4CC(=O)N3C1N(C(C)=O)c1ccccc12` (stereo not shown) [5-N-Ac-8-desmethyl-Ardeemin, N-Acetyl-8-desmethyl-ardeemin], the IC50 in [10] (DC3F/ADX, DC-3F/ADX) was 3.98 µM; in data set [1] (Homo sapiens, CCRF-CEM, Table 6B, CCRF-CEM/VM-1, read-out: IC50 of reversing agent) it was 35.8 µM; in data set [12], 14.6 µM; in data set [13], 32.9 µM; in data set [8] (Mesocricetus auratus, DC3F, read-out: IC50 (A), mean ± spread, mean of the determinations), 29.3 ± 8.38 µM; in data set [8] (Mesocricetus auratus, DC3F, read-out: IC50 (A), single determinations), 37.7 µM. Besides, the IC50 in [8] (read-out: IC50 (A), single determinations) amounted to 20.9 µM; in data set [9] (Homo sapiens, read-out: IC50 of reversing agent, Table 6B, CCRF-CEM), 22.7 µM. The “(C)/(A)” value in data set [10] (IC50 ratio DC-3F/ADX to DC-3F, * collaterally sensitive) is 0.14 X. In addition, the “[3H]vinblastine accumulation” value is 29.33 fmole/10^3 cells in [2] (washed), 33.13 fmole/10^3 cells in data set [2] (without wash), 7.66 fmole/10^3 cells in data set [3] (washed) and 33.53 fmole/10^3 cells in data set [3] (without wash). In addition, in data set [5] (IC50 ratio DC-3F/ADII to DC-3F, * collaterally sensitive), the “(B)/(A)” value was 0.50 X. In addition, the “% ILS” value in data set [11] is given as “+1%”. In data set [11], this compound showed an MST of 8.40 days.

For the compound `C=CC(C)(C)C12CC3c4nc5ccccc5c(=O)n4C(C)C(=O)N3C1Nc1ccccc12` (stereo not shown) [Ardeemin], the concentration for an effect of 90% (IC90) in [1] (ccrf-cem/vm-1 cells) was 88.8 µM; in [4], 30.9 µM; in data set [5] (dc-3f/adii cells), 24.6 µM; in [6], 65.7 µM; in data set [7] (ccrf-cem/vbl100 cells), 27.9 µM. Also, the activation at 20 µM in data set [14] (Homo sapiens, CCRF-CEM, 0.5 h, 20 μM, 30 min, 37° C., read-out: increase of VP-16 accumulation) was found to be 33%. Further, the “[3H]vinblastine accumulation” value in data set [2] (washed) turned out to be 29.94 fmole/10^3 cells; in data set [2] (without wash) it was 34.68 fmole/10^3 cells; in [3] (washed), 5.42 fmole/10^3 cells; in [3] (without wash), 22.84 fmole/10^3 cells. Also, it took 10.2 µM to reach the 80% level in data set [4] (IC80). For the same compound, the results for the IC50 in [8] (setting [19]) and in data set [9] (setting [20]) were 10.2 µM and 20.8 µM, respectively. The fold induction at 20 µM in [15] was 1.51; in [16], 3.1.

In the case of `COc1ccc(CCN(C)CCCC(C#N)(c2ccc(OC)c(OC)c2)C(C)C)cc1OC` (stereo not shown) [Verapamil, verapamil], the IC50 in data set [1] (Table 6B, CCRF-CEM/VM-1, read-out: IC50 of reversing agent) came to 118 µM; in data set [7] (read-out: IC50 of reversing agent, Table 6B, CCRF-CEM/VBL) it was 118 µM; in data set [9] (read-out: IC50 of reversing agent, Table 6B), 296 µM. Also, in data set [14] (100 μM, in words), the VP-16 accumulation result is “also increased VP-16 accumulation”. Further, in data set [5] (in words), the collateral sensitivity entry is recorded as “Collateral sensitivity is also observed”. For the same compound, the “% ILS” value in [17] was “+1%”; in [18], “+5%”. Further, the figures for the MST in data set [17] and in [18] were 7.7 days and 7.9 days, respectively. For the same compound, the Days survived in [17] (individual mice 1-5) is 7.0 days and 8.0 days and 8.6 days; in data set [18] (individual mice 1-5), 6.5 days and 7.25 days and 8.25 days and 9.25 days.

For orientation: IC90 means the concentration at which the effect reaches the 90% level. The low end stands for an effect from little substance, the high end for a need for much substance. As usually defined, the IC80 is the point of the concentration-response curve where the effect stands at 80%.
